Results from patent US20260355212A1 (priority 2022, published 2026).
Read-outs that look alike come from different tables or passages of the source.

Columns and labels:
[1] = target: HCoV-HKU1 Mpro (Human coronavirus HKU1, UniProt P0C6X2); test: HCoV-HKU1 Mpro enzymatic inhibition assay (fluorescence); assay type: biochemical
In short: (§1)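 E. coli-expressed Mpro was preincubated with 10-dose, 3-fold diluted compound for 30 min at room temperature before fluorogenic substrate was added. After 60 min at 30 °C, fluorescence was read at Ex/Em 340/490 nm. Inhibition % was normalized to DMSO and GC376 controls with no-enzyme background correction, and IC50 came from a four-parameter fit.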

[2] = target: HCoV-NL63 Mpro (Human coronavirus NL63, UniProt P0C6X5); test: HCoV-NL63 Mpro enzymatic inhibition assay (fluorescence); assay type: biochemical
In short: as §1

[3] = target: MERS Mpro (Middle East respiratory syndrome-related coronavirus, UniProt K9N7C7); test: biochemical; parameters: species or system MERS-CoV
[4] = target: SARS-CoV-1 Mpro (Severe acute respiratory syndrome coronavirus, UniProt P0C6X7); test: biochemical
[5] = target: SARS-CoV-2 Mpro (Severe acute respiratory syndrome coronavirus 2, UniProt P0DTD1); test: SARS-CoV-2 Mpro enzymatic inhibition assay (fluorescence); assay type: biochemical
In short: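 Recombinant Mpro expressed in E. coli was preincubated 30 min at room temperature with 10-point, 3-fold serially diluted compound in duplicate. Fluorogenic substrate was then added and incubated 60 min at 30° C, and fluorescence read at Ex/Em 340/490 nm. IC50 came from a four-parameter fit of % inhibition.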

[6] = target: HCoV-229E Mpro (Human coronavirus 229E, UniProt P0C6X1); test: HCoV-229E Mpro enzymatic inhibition assay (fluorescence); assay type: biochemical
[7] = target: HCoV-OC43 Mpro (Human coronavirus OC43, UniProt P0C6X6); test: HCoV-OC43 Mpro enzymatic inhibition assay (fluorescence); assay type: biochemical
In short: as §1

[8] = mean, 25 nM protein, 25 μM substrate, 30 min pre-incubation, 60 min at 30° C., read-out: Mpro_SARS-CoV-2 mean IC50

Chain of HCoV-229E Mpro (P0C6X1 2966-3267 limits assumed): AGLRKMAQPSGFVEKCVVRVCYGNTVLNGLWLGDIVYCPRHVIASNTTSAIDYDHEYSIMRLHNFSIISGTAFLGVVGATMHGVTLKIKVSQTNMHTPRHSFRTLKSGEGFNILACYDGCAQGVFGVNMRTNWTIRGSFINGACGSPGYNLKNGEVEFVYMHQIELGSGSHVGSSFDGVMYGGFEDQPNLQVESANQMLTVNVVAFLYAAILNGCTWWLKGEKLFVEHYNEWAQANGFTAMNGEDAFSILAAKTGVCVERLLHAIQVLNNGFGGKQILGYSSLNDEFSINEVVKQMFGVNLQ
Chain of HCoV-HKU1 Mpro (P0C6X2 3335-3637 limits assumed): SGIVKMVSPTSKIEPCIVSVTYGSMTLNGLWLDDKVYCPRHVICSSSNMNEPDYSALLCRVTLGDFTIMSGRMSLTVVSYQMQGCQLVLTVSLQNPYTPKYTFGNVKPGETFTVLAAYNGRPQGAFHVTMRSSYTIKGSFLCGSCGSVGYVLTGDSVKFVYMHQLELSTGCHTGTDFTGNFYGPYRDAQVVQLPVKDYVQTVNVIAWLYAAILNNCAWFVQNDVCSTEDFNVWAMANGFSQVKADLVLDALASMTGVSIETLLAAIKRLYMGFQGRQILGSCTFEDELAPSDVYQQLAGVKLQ
Chain of MERS Mpro (K9N7C7 3248-3553 limits assumed): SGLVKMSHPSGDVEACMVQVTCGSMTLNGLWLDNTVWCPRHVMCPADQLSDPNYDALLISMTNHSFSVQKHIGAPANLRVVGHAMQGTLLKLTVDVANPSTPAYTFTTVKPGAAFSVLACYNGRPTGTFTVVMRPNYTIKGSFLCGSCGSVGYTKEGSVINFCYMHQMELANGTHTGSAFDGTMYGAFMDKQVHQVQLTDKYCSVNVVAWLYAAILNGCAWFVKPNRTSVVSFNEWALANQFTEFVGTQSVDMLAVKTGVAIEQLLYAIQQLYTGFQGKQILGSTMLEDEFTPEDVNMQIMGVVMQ
Chain of HCoV-NL63 Mpro (P0C6X5 2940-3242 limits assumed): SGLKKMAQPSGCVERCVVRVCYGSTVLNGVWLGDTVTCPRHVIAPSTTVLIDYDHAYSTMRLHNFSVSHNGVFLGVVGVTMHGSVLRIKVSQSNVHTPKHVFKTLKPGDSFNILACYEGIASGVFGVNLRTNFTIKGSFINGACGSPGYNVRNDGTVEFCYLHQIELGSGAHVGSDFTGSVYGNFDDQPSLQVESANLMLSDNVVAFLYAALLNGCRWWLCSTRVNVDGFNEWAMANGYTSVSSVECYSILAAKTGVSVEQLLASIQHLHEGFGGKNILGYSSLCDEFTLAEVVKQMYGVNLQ
Chain of HCoV-OC43 Mpro (P0C6X6 3247-3549 limits assumed): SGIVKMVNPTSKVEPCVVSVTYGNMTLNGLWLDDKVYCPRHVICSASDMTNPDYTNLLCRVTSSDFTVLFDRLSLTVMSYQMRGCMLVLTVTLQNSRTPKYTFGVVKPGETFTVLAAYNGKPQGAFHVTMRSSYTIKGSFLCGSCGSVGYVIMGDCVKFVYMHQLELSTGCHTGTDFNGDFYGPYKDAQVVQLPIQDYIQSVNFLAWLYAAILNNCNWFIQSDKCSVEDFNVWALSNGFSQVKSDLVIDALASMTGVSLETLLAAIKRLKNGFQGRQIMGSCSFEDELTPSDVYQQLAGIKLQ

CC1(C)[C@@H]2[C@@H](C(=O)N[C@H](C=O)C[C@@H]3CCNC3=O)N(C(=O)c3cc4cccc(C#N)c4[nH]3)C[C@@H]21 [Compound 32, (1R,2S,5S)-3-(7-cyano-1H-indole-2-carbonyl)-6,6-dimethyl-N—((S)-1-oxo-3-((S)-2-oxopyrrolidin-3-yl)propan-2-yl)-3-azabicyclo[3.1.0]hexane-2-carboxamide]
IC50 [1]: 21.8 nM | IC50 [2]: 59.6 nM | IC50 [3]: 177 nM | IC50 [4]: 36.3 nM | IC50 [5]: 19.7 nM | IC50 [6]: 35.4 nM | IC50 [7]: 52.4 nM

Cc1cccc2cc(C(=O)N3C[C@H]4[C@@H]([C@H]3C(=O)N[C@H](C=O)C[C@@H]3CCNC3=O)C4(C)C)[nH]c12 [Compound 33, (1R,2S,5S)-6,6-Dimethyl-3-(7-methyl-1H-indole-2-carbonyl)-N—((S)-1-oxo-3-((S)-2-oxopyrrolidin-3-yl)propan-2-yl)-3-azabicyclo[3.1.0]hexane-2-carboxamide]
IC50 [1]: 37.9 nM | IC50 [2]: 78 nM | IC50 [3]: 227 nM | IC50 [4]: 34 nM | IC50 [5]: 19.7 nM | IC50 [6]: 43.5 nM | IC50 [7]: 83.2 nM

CC(C)c1cccc2[nH]c(C(=O)N3C[C@H]4[C@@H]([C@H]3C(=O)N[C@H](C=O)C[C@@H]3CCNC3=O)C4(C)C)cc12 [Compound 34, (1R,2S,5S)-3-(4-isopropyl-1H-indole-2-carbonyl)-6,6-dimethyl-N—((S)-1-oxo-3-((S)-2-oxopyrrolidin-3-yl)propan-2-yl)-3-azabicyclo[3.1.0]hexane-2-carboxamide]
IC50 [1]: 20.8 nM | IC50 [2]: 65.3 nM | IC50 [3]: 278 nM | IC50 [4]: 35.3 nM | IC50 [5, 8]: 19.8 nM | IC50 [6]: 37.7 nM | IC50 [7]: 57.9 nM

NC(=O)C(=O)[C@H](C[C@@H]1CCNC1=O)NC(=O)[C@@H]1CC2(CC2)CN1C(=O)c1cc2ccccc2[nH]1 [Compound 35, (S)—N—((S)-4-Amino-3,4-dioxo-1-((S)-2-oxopyrrolidin-3-yl)butan-2-yl)-5-(1H-indole-2-carbonyl)-5-azaspiro[2.4]heptane-6-carboxamide]
IC50 [1]: 11.4 nM | IC50 [2]: 48.5 nM | IC50 [3]: 179 nM | IC50 [4]: 65.8 nM | IC50 [5]: 20.3 nM | IC50 [6]: 37.4 nM | IC50 [7]: 64.4 nM

COc1ccc(F)c2[nH]c(C(=O)N3C[C@H]4[C@@H]([C@H]3C(=O)N[C@H](C=O)C[C@@H]3CCNC3=O)C4(C)C)cc12 [Compound 36, (1R,2S,5S)-3-(7-Fluoro-4-methoxy-1H-indole-2-carbonyl)-6,6-dimethyl-N—((S)-1-oxo-3-((S)-2-oxopyrrolidin-3-yl)propan-2-yl)-3-azabicyclo[3.1.0]hexane-2-carboxamide]
IC50 [1]: 35.7 nM | IC50 [2]: 51.7 nM | IC50 [3]: 245 nM | IC50 [4]: 31.7 nM | IC50 [5]: 20.6 nM | IC50 [6]: 33.2 nM | IC50 [7]: 42.7 nM

C[C@@H](C(=O)N1C[C@H]2[C@@H]([C@H]1C(=O)N[C@H](C=O)C[C@@H]1CCNC1=O)C2(C)C)c1ccccc1 [Compound 37, (1R,2S,5S)-6,6-dimethyl-N—((S)-1-oxo-3-((S)-2-oxopyrrolidin-3-yl)propan-2-yl)-3-((R)-2-phenylpropanoyl)-3-azabicyclo[3.1.0]hexane-2-carboxamide]
IC50 [1]: 36.4 nM | IC50 [2]: 188 nM | IC50 [3]: 242 nM | IC50 [4]: 40.4 nM | IC50 [5]: 20.6 nM | IC50 [6]: 45.6 nM | IC50 [7]: 36.7 nM

O=C[C@H](C[C@@H]1CCNC1=O)NC(=O)[C@@H]1C[C@@H](C2CCCCC2)CN1C(=O)c1cc2c(F)cccc2[nH]1 [Compound 38, (2S,4S)-4-Cyclohexyl-1-(4-fluoro-1H-indole-2-carbonyl)-N—((S)-1-oxo-3-((S)-2-oxopyrrolidin-3-yl)propan-2-yl)pyrrolidine-2-carboxamide]
IC50 [1]: 16 nM | IC50 [2]: 100 nM | IC50 [3]: 516 nM | IC50 [4]: 97 nM | IC50 [5]: 21 nM | IC50 [6]: 41.6 nM | IC50 [7]: 46 nM

CC(C)c1ccc(F)c2[nH]c(C(=O)N3C[C@H]4[C@@H]([C@H]3C(=O)N[C@H](C=O)C[C@@H]3CCNC3=O)C4(C)C)cc12 [Compound 39, (1R,2S,5S)-3-(7-fluoro-4-isopropyl-1H-indole-2-carbonyl)-6,6-dimethyl-N—((S)-1-oxo-3-((S)-2-oxopyrrolidin-3-yl)propan-2-yl)-3-azabicyclo[3.1.0]hexane-2-carboxamide]
IC50 [1]: 16 nM | IC50 [2]: 40 nM | IC50 [3]: 208 nM | IC50 [4]: 30 nM | IC50 [5]: 21.6 nM | IC50 [6]: 26.4 nM | IC50 [7]: 35.1 nM

CC1(C)[C@@H]2[C@@H](C(=O)N[C@H](C=O)C[C@@H]3CCNC3=O)N(C(=O)Cc3ccc4c(c3)CCCC4)C[C@@H]21 [Compound 40, (1R,2S,5S)-6,6-Dimethyl-N—((S)-1-oxo-3-((S)-2-oxopyrrolidin-3-yl)propan-2-yl)-3-(2-(5,6,7,8-tetrahydronaphthalen-2-yl)acetyl)-3-azabicyclo[3.1.0]hexane-2-carboxamide]
IC50 [1]: 20.4 nM | IC50 [2]: 88.6 nM | IC50 [3]: 237 nM | IC50 [4]: 35.3 nM | IC50 [5]: 21.7 nM | IC50 [6]: 40.1 nM | IC50 [7]: 45.7 nM

CC1(C)[C@@H]2[C@@H](C(=O)N[C@H](C=O)C[C@@H]3CCNC3=O)N(C(=O)c3cc4c(Cl)cccc4[nH]3)C[C@@H]21 [Compound 43, (1R,2S,5S)-3-(4-Chloro-1H-indole-2-carbonyl)-6,6-dimethyl-N—((S)-1-oxo-3-((S)-2-oxopyrrolidin-3-yl)propan-2-yl)-3-azabicyclo[3.1.0]hexane-2-carboxamide]
IC50 [1]: 18 nM | IC50 [2]: 47.5 nM | IC50 [3]: 236 nM | IC50 [4]: 25.8 nM | IC50 [5]: 22.1 nM | IC50 [6]: 39.3 nM | IC50 [7]: 45.4 nM

O=C[C@H](C[C@@H]1CCNC1=O)NC(=O)[C@@H]1CC2(CC2)CN1C(=O)c1cc2ccccc2[nH]1 [Compound 47, (S)-5-(1H-Indole-2-carbonyl)-N—((S)-1-oxo-3-((S)-2-oxopyrrolidin-3-yl)propan-2-yl)-5-azaspiro[2.4]heptane-6-carboxamide]
IC50 [1]: 16.8 nM | IC50 [2]: 48 nM | IC50 [3]: 139 nM | IC50 [4]: 43 nM | IC50 [5, 8]: 22.8 nM | IC50 [6]: 47.8 nM | IC50 [7]: 64 nM

CC(C)(C(=O)N1C[C@H]2[C@@H]([C@H]1C(=O)N[C@H](C=O)C[C@@H]1CCNC1=O)C2(C)C)c1ccccc1 [Compound 48, (1R,2S,5S)-6,6-dimethyl-3-(2-methyl-2-phenylpropanoyl)-N—((S)-1-oxo-3-((S)-2-oxopyrrolidin-3-yl)propan-2-yl)-3-azabicyclo[3.1.0]hexane-2-carboxamide]
IC50 [1]: 73.4 nM | IC50 [2]: 376 nM | IC50 [3]: 484 nM | IC50 [4]: 53.6 nM | IC50 [5, 8]: 22.9 nM | IC50 [6]: 86.9 nM | IC50 [7]: 164 nM

CC1(C)[C@@H]2[C@@H](C(=O)N[C@H](C=O)C[C@@H]3CCNC3=O)N(C(=O)c3cc4c(F)ccc(Cl)c4[nH]3)C[C@@H]21 [Compound 49, (1R,2S,5S)-3-(7-chloro-4-fluoro-1H-indole-2-carbonyl)-6,6-dimethyl-N—((S)-1-oxo-3-((S)-2-oxopyrrolidin-3-yl)propan-2-yl)-3-azabicyclo[3.1.0]hexane-2-carboxamide]
IC50 [1]: 23.4 nM | IC50 [2]: 57.6 nM | IC50 [3]: 202 nM | IC50 [4]: 29.4 nM | IC50 [5]: 23 nM | IC50 [6]: 31.5 nM | IC50 [7]: 37 nM

CC1(C)C[C@@H](C(=O)N[C@H](C=O)C[C@@H]2CCNC2=O)N(C(=O)c2cc3c(F)cccc3[nH]2)C1 [Compound 51, (S)-1-(4-Fluoro-1H-indole-2-carbonyl)-4,4-dimethyl-N—((S)-1-oxo-3-((S)-2-oxopyrrolidin-3-yl)propan-2-yl)pyrrolidine-2-carboxamide]
IC50 [1]: 13 nM | IC50 [2]: 22.2 nM | IC50 [3]: 192 nM | IC50 [4]: 38 nM | IC50 [5]: 24.4 nM | IC50 [6]: 27.3 nM | IC50 [7]: 21.9 nM

CC1CCC(CC(=O)N2C[C@H]3[C@@H]([C@H]2C(=O)N[C@H](C=O)C[C@@H]2CCNC2=O)C3(C)C)CC1 (stereo partly drawn) [Compound 52, (1R,2S,5S)-6,6-dimethyl-3-(2-(4-methylcyclohexyl)acetyl)-N—((S)-1-oxo-3-((S)-2-oxopyrrolidin-3-yl)propan-2-yl)-3-azabicyclo[3.1.0]hexane-2-carboxamide]
IC50 [1]: 25 nM | IC50 [2]: 61.3 nM | IC50 [3]: 214 nM | IC50 [4]: 32.6 nM | IC50 [5]: 24.6 nM | IC50 [6]: 31.4 nM | IC50 [7]: 52 nM

CC1(C)[C@@H]2[C@@H](C(=O)N[C@H](C=O)C[C@@H]3CCNC3=O)N(C(=O)CC3CCCCC3)C[C@@H]21 [Compound 53, (1R,2S,5S)-3-(2-cyclohexylacetyl)-6,6-dimethyl-N—((S)-1-oxo-3-((S)-2-oxopyrrolidin-3-yl)propan-2-yl)-3-azabicyclo[3.1.0]hexane-2-carboxamide]
IC50 [1]: 25.6 nM | IC50 [2]: 66.5 nM | IC50 [3]: 326 nM | IC50 [4]: 45.7 nM | IC50 [5, 8]: 25 nM | IC50 [6]: 29.7 nM | IC50 [7]: 26.3 nM
